Literature values in PubChem BioAssay AID1259409 (Chemical Carcinogenesis Research Information System (CCRIS), 2018).

Tested on: rodent chemically induced tumor inhibition, incidence and multiplicity
Assay: CCRIS tumor inhibitor studies

SMILES	tumour outcome (control, treated, inhibition, significance) (Carcinogen: 2,2'-DIHYDROXY-DI-N-PROPYLNITROSAMINE, 53609-64-6, N-ETHYL-N-HYDROXYETHYLNITROSAMINE, 13147-25-6, 3,2'-DIMETHYL-1,4-, Carcinogen: 2,2'-DIHYDROXY-DI-N-PROPYLNITROSAMINE, 53609-64-6, N-ETHYL-N-HYDROXYETHYLNITROSAMINE, 13147-25-6, 3,2'-DIMETHYL-1,4-, Dose [Inhibitor]: 0, 1% IN DIET FOR 4 WK BEGINNING 1 D PRIOR TO FIRST CARCINOGEN DOSE (STUDY DURATION: 36 WK), Route [Inhibitor]: ORAL, Species: RAT, Strain/Sex: F344/MALE, Target Tissue: Type of Lesion: KIDNEY: ADENOMA, Dose [Carcinogen]: 1000 MG/KG BW DHPN TWICE, 1500 MG/KG EHEN TWICE, 75 MG/KG BW DMAB 3 TIMES, SEQUENTIALLY OVER 3 WK, Promoter: NONE USED)	tumour outcome (control, treated, inhibition, significance) (Carcinogen: 2,2'-DIHYDROXY-DI-N-PROPYLNITROSAMINE, 53609-64-6, N-ETHYL-N-HYDROXYETHYLNITROSAMINE, 13147-25-6, 3,2'-DIMETHYL-1,4-, Carcinogen: 2,2'-DIHYDROXY-DI-N-PROPYLNITROSAMINE, 53609-64-6, N-ETHYL-N-HYDROXYETHYLNITROSAMINE, 13147-25-6, 3,2'-DIMETHYL-1,4-, Dose [Inhibitor]: 0, 1% IN DIET FOR 4 WK BEGINNING 1 D PRIOR TO FIRST CARCINOGEN DOSE (STUDY DURATION: 36 WK), Route [Inhibitor]: ORAL, Species: RAT, Strain/Sex: F344/MALE, Target Tissue: Type of Lesion: LUNG: ADENOMA, Dose [Carcinogen]: 1000 MG/KG BW DHPN TWICE, 1500 MG/KG EHEN TWICE, 75 MG/KG BW DMAB 3 TIMES, SEQUENTIALLY OVER 3 WK, Promoter: NONE USED)	tumour outcome (control, treated, inhibition, significance) (Carcinogen: 2-AMINO-1-METHYL-6-PHENYLIMIDAZO[4,5-B]PYRIDINE, 105650-23-5, Dose [Inhibitor]: 0, 1% IN DIET FOR 54 WK (STUDY DURATION: 54 WK), Route [Inhibitor]: ORAL, Species: RAT, Strain/Sex: F344/FEMALE, Target Tissue: Type of Lesion: COLON: ADENOMA, Dose [Carcinogen]: 0.02% IN DIET FOR 54 WK, Promoter: NONE USED)	tumour outcome (control, treated, inhibition, significance) (Carcinogen: 2-AMINO-1-METHYL-6-PHENYLIMIDAZO[4,5-B]PYRIDINE, 105650-23-5, Dose [Inhibitor]: 0, 1% IN DIET FOR 54 WK (STUDY DURATION: 54 WK), Route [Inhibitor]: ORAL, Species: RAT, Strain/Sex: F344/FEMALE, Target Tissue: Type of Lesion: MAMMARY GLAND: ADENOCARCINOMA, Dose [Carcinogen]: 0.02% IN DIET FOR 54 WK, Promoter: NONE USED)	tumour outcome (control, treated, inhibition, significance) (Carcinogen: 2-AMINO-1-METHYL-6-PHENYLIMIDAZO[4,5-B]PYRIDINE, 105650-23-5, Dose [Inhibitor]: 0, 1% IN DIET FOR 54 WK (STUDY DURATION: 54 WK), Route [Inhibitor]: ORAL, Species: RAT, Strain/Sex: F344/FEMALE, Target Tissue: Type of Lesion: MAMMARY GLAND: FIBROADENOMA, Dose [Carcinogen]: 0.02% IN DIET FOR 54 WK, Promoter: NONE USED)	tumour outcome (control, treated, inhibition, significance) (Carcinogen: 7,12-DIMETHYLBENZ[A]ANTHRACENE [57-97-6], Dose [Inhibitor]: 0.5% IN 0.2 ML DMSO/ACETONE (15:85) 1 D PRIOR TO CARCINOGEN DOSE (STUDY DURATION: 31 WK), Route [Inhibitor]: DERMAL, Species: MOUSE, Strain/Sex: ICR/FEMALE, Target Tissue: Type of Lesion: SKIN: TUMOR, Dose [Carcinogen]: 0.2 UMOL ONCE (STUDY DURATION: 31 WK), Promoter: 12-O-TETRADECANOYLPHORBOL-13-ACETATE [16561-29-8])	tumour outcome (control, treated, inhibition, significance) (Carcinogen: 7,12-DIMETHYLBENZ[A]ANTHRACENE [57-97-6], Dose [Inhibitor]: 0.5% IN 0.2 ML DMSO/ACETONE (15:85) 1 D PRIOR TO CARCINOGEN DOSE AND 10 MIN PRIOR TO EACH PROMOTER DOSE FOR 30 WK (STUDY, Route [Inhibitor]: DERMAL, Species: MOUSE, Strain/Sex: ICR/FEMALE, Target Tissue: Type of Lesion: SKIN: TUMOR, Dose [Carcinogen]: 0.2 UMOL ONCE (STUDY DURATION: 31 WK), Promoter: 12-O-TETRADECANOYLPHORBOL-13-ACETATE [16561-29-8])	tumour outcome (control, treated, inhibition, significance) (Carcinogen: 7,12-DIMETHYLBENZ[A]ANTHRACENE [57-97-6], Dose [Inhibitor]: 0.5% IN 0.2 ML DMSO/ACETONE (15:85) 10 MIN PRIOR TO EACH PROMOTER DOSE FOR 30 WK (STUDY DURATION: 30 WK), Route [Inhibitor]: DERMAL, Species: MOUSE, Strain/Sex: ICR/FEMALE, Target Tissue: Type of Lesion: SKIN: TUMOR, Dose [Carcinogen]: 0.2 UMOL ONCE (STUDY DURATION: 30 WK), Promoter: 12-O-TETRADECANOYLPHORBOL-13-ACETATE [16561-29-8])	tumour outcome (control, treated, inhibition, significance) (Carcinogen: BENZO[A]PYRENE-7,8-DIHYDRODIOL-9,10-EPOXIDE, 58917-67-2, Dose [Inhibitor]: 0, 15 MG/KG BW ONCE 30 MIN PRIOR TO CARCINOGEN DOSE (STUDY DURATION: 24 WK), Route [Inhibitor]: GAVAGE, Species: MOUSE, Strain/Sex: ICR/FEMALE, Target Tissue: Type of Lesion: SKIN: PAPILLOMA, Dose [Carcinogen]: 0.1 UMOL ONCE, Promoter: 12-O-TETRADECANOYLPHORBOL-13-ACETATE, 16561-29-8)	tumour outcome (control, treated, inhibition, significance) (Carcinogen: BENZO[A]PYRENE, 50-32-8, Dose [Inhibitor]: 0, 15 MG/KG BW ONCE 30 MIN PRIOR TO CARCINOGEN DOSE (STUDY DURATION: 40 WK), Route [Inhibitor]: GAVAGE, Species: MOUSE, Strain/Sex: ICR/FEMALE, Target Tissue: Type of Lesion: SKIN: PAPILLOMA, Dose [Carcinogen]: 0.3 UMOL ONCE, Promoter: 12-O-TETRADECANOYLPHORBOL-13-ACETATE, 16561-29-8)	tumour outcome (control, treated, inhibition, significance) (Carcinogen: DIETHYLNITROSAMINE, 55-18-5, Dose [Inhibitor]: 0, 2000 PPM IN DIET FOR 4 WK DURING INITIATION (STUDY DURATION: 24 WK), Route [Inhibitor]: ORAL, Species: RAT, Strain/Sex: F344/MALE, Target Tissue: Type of Lesion: LIVER: ADENOMA, Dose [Carcinogen]: 100 MG/KG BW 1/WK FOR 3 WK, Promoter: PHENOBARBITAL, 50-06-6)	tumour outcome (control, treated, inhibition, significance) (Carcinogen: DIETHYLNITROSAMINE, 55-18-5, Dose [Inhibitor]: 0, 2000 PPM IN DIET FOR 4 WK DURING INITIATION (STUDY DURATION: 24 WK), Route [Inhibitor]: ORAL, Species: RAT, Strain/Sex: F344/MALE, Target Tissue: Type of Lesion: LIVER: CARCINOMA, Dose [Carcinogen]: 100 MG/KG BW 1/WK FOR 3 WK, Promoter: PHENOBARBITAL, 50-06-6)	tumour outcome (control, treated, inhibition, significance) (Carcinogen: DIETHYLNITROSAMINE, 55-18-5, Dose [Inhibitor]: 0, 2000 PPM IN DIET FOR 20 WK BEGINNING 1 WK POST CARCINOGEN TREATMENT (STUDY DURATION: 24 WK), Route [Inhibitor]: ORAL, Species: RAT, Strain/Sex: F344/MALE, Target Tissue: Type of Lesion: LIVER: ADENOMA, Dose [Carcinogen]: 100 MG/KG BW 1/WK FOR 3 WK, Promoter: NONE USED)	tumour outcome (control, treated, inhibition, significance) (Carcinogen: DIETHYLNITROSAMINE, 55-18-5, Dose [Inhibitor]: 0, 2000 PPM IN DIET FOR 20 WK BEGINNING 1 WK POST CARCINOGEN TREATMENT (STUDY DURATION: 24 WK), Route [Inhibitor]: ORAL, Species: RAT, Strain/Sex: F344/MALE, Target Tissue: Type of Lesion: LIVER: ADENOMA, Dose [Carcinogen]: 100 MG/KG BW 1/WK FOR 3 WK, Promoter: PHENOBARBITAL, 50-06-6)	tumour outcome (control, treated, inhibition, significance) (Carcinogen: DIETHYLNITROSAMINE, 55-18-5, Dose [Inhibitor]: 0, 2000 PPM IN DIET FOR 20 WK BEGINNING 1 WK POST CARCINOGEN TREATMENT (STUDY DURATION: 24 WK), Route [Inhibitor]: ORAL, Species: RAT, Strain/Sex: F344/MALE, Target Tissue: Type of Lesion: LIVER: CARCINOMA, Dose [Carcinogen]: 100 MG/KG BW 1/WK FOR 3 WK, Promoter: NONE USED)	tumour outcome (control, treated, inhibition, significance) (Carcinogen: DIETHYLNITROSAMINE, 55-18-5, Dose [Inhibitor]: 0, 2000 PPM IN DIET FOR 20 WK BEGINNING 1 WK POST CARCINOGEN TREATMENT (STUDY DURATION: 24 WK), Route [Inhibitor]: ORAL, Species: RAT, Strain/Sex: F344/MALE, Target Tissue: Type of Lesion: LIVER: CARCINOMA, Dose [Carcinogen]: 100 MG/KG BW 1/WK FOR 3 WK, Promoter: PHENOBARBITAL, 50-06-6)	tumour outcome (control, treated, inhibition, significance) (Dose [Inhibitor]: 0, 500 PPM IN DIET FOR 2 WK ADMINISTERED WITH CARCINOGEN (STUDY DURATION: 9 MO), Route [Inhibitor]: ORAL, Species: FISH, Strain/Sex: RAINBOW TROUT/MALE, FEMALE, Target Tissue: Type of Lesion: LIVER: TUMOR, Promoter: NONE USED)	tumour outcome (control, treated, inhibition, significance) (Dose [Inhibitor]: 0, 500 PPM IN DIET FOR 2 WK ADMINISTERED WITH CARCINOGEN (STUDY DURATION: 9 Mo), Route [Inhibitor]: ORAL, Species: FISH, Strain/Sex: RAINBOW TROUT/MALE, FEMALE, Target Tissue: Type of Lesion: LIVER: TUMOR, Promoter: NONE USED)	tumour outcome (control, treated, inhibition, significance) (Carcinogen: 4-(METHYLNITROSAMINO)-1-(3-PYRIDYL)-1-BUTANONE, 64091-91-4, Dose [Inhibitor]: 0, 5 UMOL IN 0.1 ML CORN OIL ONCE 2 HR PRIOR TO CARCINOGEN DOSE (STUDY DURATION: 16 WK), Route [Inhibitor]: GAVAGE, Species: MOUSE, Strain/Sex: STRAIN-A/FEMALE, Target Tissue: Type of Lesion: LUNG: ADENOMA, Dose [Carcinogen]: 10 UMOL IN 0.1 ML SALINE ONCE, Promoter: NONE USED)
C=Cc1c(C)c2[n-]c1=CC1=NC(=CC3=C(C)C(=C([O-])[O-])C(=N3)C(CC(=O)[O-])=C3N=C(C=2)C(C)C3CCC(=O)[O-])C(CC)=C1C.[Cu+2].[Na+].[Na+].[Na+] (centres undefined)	6/10 (60%), 6/13 (46%), 23%, not significant	5/10 (50%), 8/13 (62%), -24%, not significant	2/20 (10%), 4/20 (20%), -100%, not significant	8/20 (40%), 3/20 (15%), 63%, not significant	2/20 (10%), 0/20 (0%), 100%, not significant	100%, 87%, 13%, not significant	100%, 27%, 73%, p<0.005	100%, 40%, 60%, p<0.005	98%, 70%, 29%, not calculated	97%, 78%, 20%, not calculated	95%, 70%, 26%, p<0.05	70%, 60%, 14%, not significant	13%, 13%, 0%, not significant	95%, 63%, 34%, p<0.02	29%, 31%, -7%, not significant	70%, 63%, 10%, not significant	16%, 12%, 25%, p=0.29	7%, 3%, 57%, p=0.04	
C#CCCc1ccccc1																			100%, 60%, 40%, p<0.01
